Experimental data published in patent US7410971B2, “1,2-di(cyclic)substituted benzene compounds” (Eisai R&D Management Co., Ltd., priority 2003, dated 2008).

How the values were obtained:
[1] = test system: colon-infiltrating neutrophils (myeloperoxidase enzyme activity); assay: Oxazolone-induced colon neutrophil infiltration model; format: in vivo, Balb/c mice; conditions: Mus musculus, po, 30 mg/kg orally 30 minutes prior to intrarectal oxazolone, colon myeloperoxidase activity 4 hours after, vs oxazolone control group, read-out: Inhibitory rate (%)
Description: Evaluation of Compounds in Oxazolone-Induced Colon Neutrophil Infiltration Model
<Sensitization with Oxazolone>
Five- to six-week-old male Balb/c mice (Charles River Japan) were shaven at the abdomen to an approximately 2 cm square area. A 100% ethanol solution containing 3% 4-ethoxymethylene-2-phenyl-2-oxazolin-5-one (hereinafter referred to as “oxazolone”; Sigma) was applied at 150 μl onto the abdomen of each mouse.
<Preparation of Emulsion Containing Oxazolone>
Distilled water (Otsuka Pharmaceutical) was added in an equivalent volume to 100% peanut oil (Kanto Kagaku) containing 1% oxazolone, and the components were vigorously mixed with a glass syringe (Top Co.), to prepare an emulsion containing 0.5% oxazolone.
<Induction with Oxazolone>
The mice were fasted on the 3rd day after oxazolone sensitization, and were injected with 100 μl of the emulsion containing 0.5% oxazolone prepared in the way described above intrarectally at a site approximately 3 cm from the anus under ether anesthesia on the 4th day.
<Colon-Infiltrating Neutrophil Assay>
Each compound was suspended or dissolved in an aqueous solution containing 0.5% methyl cellulose (Wako), and orally administered at 30 mg/kg 30 minutes prior to the intrarectal injection of oxazolone emulsion. Four hours after the intrarectal injection of oxazolone, mice were sacrificed by cervical dislocation, and colons were extirpated, dissected in the longitudinal direction, washed with physiological saline, and transferred to ice-cooled plastic centrifugation tubes. After adding 1 ml of 50 mM potassium phosphate buffer (hereinafter abbreviated as KPB) (pH 6.0) to the tube, and the tissue were homogenized with PHYSCOTRON (Microtec Nition Co., Ltd.), 2 ml of 50 mM KPB (pH 6.0) was added and the mixture was centrifuged at 3000 rpm, 4° C. for 10 minutes and the supernatant was removed. To the resultant precipitate was added 1 ml of 50 mM KPB (pH 6.0) containing 0.5% hexadecyltrimethyl-ammonium bromide (Sigma), and freeze-thawed 3 to 5 times using liquid nitrogen and hot water, centrifuged at 3000 rpm, 4° C. for 10 minutes to yield a supernatant. The myeloperoxidase enzyme activity in the supernatant was assayed in the following manner. Specifically, to 10 μl of the obtained supernatant was added 200 μl of 50 mM KPB (pH6.0) containing 0.017% o-dianisidine (Sigma) and 0.0005% hydrogen peroxide (Wako), incubated at 37° C., and the change in absorbance at 450 nm was continuously measured for 1 minute using an EL340 Automated Microplate Reader (BIO-TEK) in kinetic mode. The units were the rate of change in absorbance per minute (mO.D./min.). With regard to the effect of each compound, the inhibitory rate (%) with respect to the oxazolone control group, i.e. the oxazolone-injected/compound-free group, was shown in the table 3.

DSS-induced colitis = DSS-induced colitis model; format: in vivo, Balb/c mice; conditions: 30 mg/kg orally once a day for 5-7 successive days; 1-3% DSS in water for 5-7 days
Text: Evaluation of Compounds in DSS-Induced Colitis Model
A 1-3% solution of dextran sulfate sodium (hereinafter abbreviated as DSS; ICN) in purified water (Otsuka Pharmaceutical) was fed freely to 6- to 7-week-old male Balb/c mice (Charles River Japan) for 5-7 days to induce colitis. Disease Activity Index (hereinafter abbreviated as DAI) scored based on fecal hardness, blood content in feces and body weight change, the number of neutrophils infiltrating the colon and the length of the colon were used as indexes to evaluate compounds. Each compound was suspended or dissolved in an aqueous solution containing 0.5% methyl cellulose (Wako), and orally administered at 30 mg/kg once a day, for 5-7 successive days.

SMILES | inhibition in vivo at 30 mg/kg [1] [%] | improvement in comparison with the DSS control group (DAI, number of neutrophils infiltrating the colon, length of the colon) (DSS-induced colitis)
CCCCN1CCN(c2ccc(N3CCOCC3)cc2C2=CCC(C(C)(C)C)CC2)CC1.Cl (racemic) [Example 18, 4-[3-(4-t-Butylcyclohex-1-enyl)-4-(4-butylpiperazine-1-yl)phenyl]morpholine hydrochloride] | 50 | particularly good improvement
COC1CCN(c2ccc(N3CCN(CC4CC4)CC3)c(C3=CCC(C(C)(C)C)CC3)c2)CC1.Cl (racemic) [Example 20, 1-[2-(4-t-Butylcyclohex-1-enyl)-4-(4-methoxypiperidin-1-yl)phenyl]-4-cyclopropylmethylpiperazine hydrochloride] | 38 | particularly good improvement
CCCCCN1CCN(c2cc(OC)ccc2C2CCC(C)(C)CC2)CC1.Cl [Example 1, 1-[2-(4,4-Dimethylcyclohexyl)-5-methoxyphenyl]-4-pentylpiperazine hydrochloride] | 45 | particularly good improvement
CC1(C)CC(c2ccccc2N2CCN(CC3CC3)CC2)CC(C)(C)C1.Cl [Example 9, 1-Cyclopropylmethyl-4-[2-(3,3,5,5-tetramethylcyclohexyl)phenyl]piperazine hydrochloride] | 35 | 
CCC(=O)CN1CCN(c2ccccc2C2CCC(C)(C)CC2)CC1.Cl [Example 17, 1-{4-[2-(4,4-Dimethylcyclohexyl)phenyl]piperazin-1-yl}butan-2-one hydrochloride] | 30 | particularly good improvement
COCCN1CCN(c2ccccc2C2CCC(C(C)(C)C)CC2)CC1.Cl (stereo not shown) [Example 19, 1-[2-(4-t-Butylcyclohexyl)phenyl]-4-(2-methoxyethyl)piperazine hydrochloride] |  | particularly good improvement
CC1(C)C=C(c2ccccc2N2CCN(CC3CCOCC3)CC2)CC(C)(C)C1.Cl [Example 22, 1-(Tetrahydropyran-4-ylmethyl)-4-[2-(3,3,5,5-tetramethylcyclohex-1-enyl)phenyl]piperazine hydrochloride] | 28 | particularly good improvement
CCCN1CCN(c2ccc(N3CCOCC3)cc2C2=CC(C)(C)CC(C)(C)C2)CC1.Cl [Example 28, 4-[4-(4-Propylpiperazin-1-yl)-3-(3,3,5,5-tetramethylcyclohex-1-enyl)phenyl]morpholine hydrochloride] | 48 | particularly good improvement
CCC(=O)CN1CCN(c2ccc(N3CCOCC3)cc2C2=CCC(CC)(CC)CC2)CC1.Cl [Example 30, 1-{4-[2-(4,4-Diethylcyclohex-1-enyl)-4-morpholin-4-ylphenyl]piperazin-1-yl}butan-2-one hydrochloride] | 23 | particularly good improvement
CCCN1CCN(c2ccccc2C2CC(C)(C)CC(C)(C)C2)CC1.Cl [Example 31, 1-Propyl-4-[2-(3,3,5,5-tetramethylcyclohexyl)phenyl]piperazine hydrochloride] | 38 | particularly good improvement
CC(C)CN1CCN(c2ccccc2C2=CCC3(CC2)CC3)CC1.Cl [Example 34, 1-Isobutyl-4-(2-spiro[2.5]oct-5-en-6-ylphenyl)piperazine hydrochloride] |  | particularly good improvement
